Laboratory results from patent US20110183942A1, “Methods and Compositions for Treating Alzheimer's Disease” (UNIVERSITY OF MEDICINE AND DENTISTRY OF NEW JERSEY, priority 2008, published 2011).

Target: T1, eEF2 kinase (Homo sapiens, UniProt O00418)
T1 construct: made in house; host or cells: E. coli
Assay: HTS screen for eEF2 kinase inhibitors (ATP depletion coupled to luciferase luminescence, eEF2p substrate)
Format: biochemical

identified as inhibitor for eEF2 kinase: inhibitors for eEF2 kinase
Compound: CCCCCCCCCCCCCCCCN1C=CN(c2ccccc2)C1 [L-207]
